Our source for the IC50 values is patent publication US20070037752A1, “Novel alanyl-amino peptidase inhibitors for functionally influencing different cells and treating immunological, inflammatory, neuronal, and other diseases” (priority 2003, published 2007).

Structures are written as SMILES. Residues, ends and D or L forms follow the SMILES beside them. *: point of attachment. Fmoc = O=C(OCC1c2ccccc2-c2ccccc21)*

The target in the first assay is alanyl aminopeptidases (APN) (Homo sapiens, UniProt P15144). The assay is described as follows: Inhibition of alanyl aminopeptidase enzymatic activity, fluorogenic substrate (Ala)2-rhodamine 110. It is filed as biochemical. To be noted: Table 1, unstarred values; read-out: IC50APN. Here is the method: The inhibition characteristics measured are referred to as IC-50 values or ID50 values (the latter marked with “*”) for said enzyme. The enzymatic activity was determined by means of the fluorogenic substrate/product (Ala)2-rhodamine 110.
Sequence of alanyl aminopeptidases (APN) (P15144 whole entry, species assumed): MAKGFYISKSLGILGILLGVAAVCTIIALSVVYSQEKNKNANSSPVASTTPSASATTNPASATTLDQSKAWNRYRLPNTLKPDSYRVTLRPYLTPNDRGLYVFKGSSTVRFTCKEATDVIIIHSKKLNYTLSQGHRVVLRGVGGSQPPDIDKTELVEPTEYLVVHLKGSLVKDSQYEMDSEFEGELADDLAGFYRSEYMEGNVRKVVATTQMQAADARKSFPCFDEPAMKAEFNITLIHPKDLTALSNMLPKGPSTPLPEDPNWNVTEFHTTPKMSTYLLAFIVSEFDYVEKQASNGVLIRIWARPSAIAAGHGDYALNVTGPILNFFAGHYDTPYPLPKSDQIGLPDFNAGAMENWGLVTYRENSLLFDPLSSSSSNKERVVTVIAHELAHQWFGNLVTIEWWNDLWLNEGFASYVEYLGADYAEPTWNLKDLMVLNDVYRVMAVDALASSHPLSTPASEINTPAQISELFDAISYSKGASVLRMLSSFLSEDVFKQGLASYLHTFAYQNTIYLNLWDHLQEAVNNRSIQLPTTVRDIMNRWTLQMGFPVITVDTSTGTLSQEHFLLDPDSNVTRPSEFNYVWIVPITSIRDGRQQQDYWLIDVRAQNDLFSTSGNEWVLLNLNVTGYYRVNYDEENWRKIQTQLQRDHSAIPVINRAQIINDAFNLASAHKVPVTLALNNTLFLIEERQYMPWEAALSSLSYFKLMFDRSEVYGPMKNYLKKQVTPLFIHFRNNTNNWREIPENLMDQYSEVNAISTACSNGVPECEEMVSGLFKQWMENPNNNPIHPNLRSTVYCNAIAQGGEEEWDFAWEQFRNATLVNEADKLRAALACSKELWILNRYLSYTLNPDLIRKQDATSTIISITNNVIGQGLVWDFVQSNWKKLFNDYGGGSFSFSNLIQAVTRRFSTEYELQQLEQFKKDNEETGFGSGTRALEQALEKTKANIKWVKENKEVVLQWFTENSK
Turning to `O=C(CS(=O)(=O)c1ccc(Cl)cc1)NO` [A1.008], the IC50 was 11.5 µM.

The assay is the same for the next values; noted with them: Table 2; read-out: IC50APN.
As for `N/C(=N/OS(=O)(=O)c1ccc(C(F)(F)F)cc1)C1CSCCS1` (stereo not shown) [A2.006], the IC50 was determined as 13.4 µM.

Turning to `CCCCc1noc2c1/C(=N/O)CC(c1ccccc1)C2` (stereo not shown) [A2.001], the IC50 is 2.2 µM.

For `Cc1ccc(/C=N/NC(=O)c2nnn(-c3nonc3N)c2C)o1` [A2.003], the IC50 stood at 10.9 µM.

Regarding `Nc1nonc1-n1nnc(C(=O)N/N=C/c2ccco2)c1-c1ccccc1` [A2.008], the IC50 is 46.6 µM.

Still in this assay, the particulars now being: Table 3, starred values = ID50; read-out: ID50 APN (values marked with *).
As for `C/C(=N\NC(=O)c1cc(-c2ccco2)n[nH]1)c1ccco1` [A3.334], the IC50 was 161 µM.

With `C/C(=N\NC(=O)c1ccn(C)n1)c1ccco1` [A3.349], the IC50 amounted to 323 µM.

`CC(C(=O)N/N=C/c1ccco1)n1nnc2ccccc21` (stereo not shown) [A3.327]: the IC50 is 146 µM.

Turning to `Cn1c(=O)c2c(ncn2CC(=O)N/N=C/C=C\c2ccco2)n(C)c1=O` [A3.307], the IC50 amounted to 79.8 µM.

`Nc1ccc2c(c1)C/C(=C\c1ccco1)C2=O` [A3.008]: the IC50 worked out at 2.6 µM.

Take `C#CCN1C(c2cnccn2)=NC(CC(C)C)C1C(=O)Nc1c(C)cccc1C` (stereo not shown) [A3.319]: the IC50 was found to be 103 µM.

The same assay, now with this note: Table 3, unstarred values; read-out: IC50APN.
For `COc1ccc(N(C(C)C(=O)N/N=C/c2ccco2)S(C)(=O)=O)cc1` (stereo not shown) [A3.251], the IC50 worked out at 47 µM.

As to `Cc1ccccc1S(=O)(=O)Nc1cccc(C(=O)N/N=C/c2ccco2)c1` [A3.097], the IC50 amounted to 19.2 µM.

For `Cc1ccc(/C=N/NC(=O)c2cccc(I)c2)o1` [A3.184], the IC50 was 30 µM.

In the case of `O=C(N/N=C/C=C\c1ccco1)c1ccco1` [A3.074], the IC50 stood at 16 µM.

For the compound `CCn1c(/C=C/c2ccco2)nc2ccccc21` [A3.250], the IC50 is 46.6 µM.

In the case of `CC1CCN(S(=O)(=O)c2ccc3c(c2)C(Cl)(Cl)C(=O)N3)CC1` [A3.224], the IC50 was determined as 37.2 µM.

As to `O=C(COc1cccc2ccccc12)N/N=C/c1ccco1` [A3.056], the IC50 stood at 12.9 µM.

On to `CCCOC(=O)c1cc(-c2ccc(/C=C3\C(=O)N(CCO)C(=O)C(C#N)=C3C)o2)ccc1Cl` [A3.270], for which the IC50 came to 54 µM.

On to `Cc1ccc(/C=N/NC(=O)c2cc(C)oc2C)o1` [A3.263], for which the IC50 was 50.2 µM.

For `CCOC(=O)c1ncn(Cc2ccccc2)c1N` [A3.063], the IC50 worked out at 14 µM.

Consider `Cc1ccc(C(=O)N/C(=C\c2ccco2)C(=O)N2CC3CC(C2)c2cccc(=O)n2C3)cc1C` (stereo not shown) [A3.048], for which the IC50 was 11.8 µM.

Turning to `Cc1nn(-c2ccccc2)c(C)c1-c1cc(C(=O)N/N=C/c2ccco2)[nH]n1` [A3.167], the IC50 stood at 27.4 µM.

On to `O=[N+]([O-])c1ncn(CN2CCOCC2)n1` [A3.222], for which the IC50 came to 36.6 µM.

For the compound `CCOc1ccc(-c2cc(C(=O)N/N=C/c3ccco3)[nH]n2)cc1OC` [A3.201], the IC50 stood at 33.4 µM.

As to `Cc1cc(C)c(C)c(C(=O)COC(=O)c2ccc(-n3c(C)ccc3C)cc2)c1C` [A3.014], the IC50 came out at 4.5 µM.

Take `C/C(Cn1nnc([N+](=O)[O-])n1)=N/NC(=O)COc1ccccc1[N+](=O)[O-]` [A3.010]: the IC50 came to 3.4 µM.

For `Cc1ccc(C(=O)N/C(=C\c2ccco2)C(=O)N2CCSCC2)cc1C` [A3.297], the IC50 is 68.9 µM.

In the case of `C/C(=N\NC(=O)c1ccco1)c1ccc(C)o1` [A3.331], the IC50 amounted to 152 µM.

Take `Cc1ccc(/C=N/NC(=O)c2ccc(O)cc2)o1` [A3.142]: the IC50 turned out to be 23.4 µM.

Regarding `O=C(Nc1ccc(N=Nc2ccccc2)cc1)c1ccc(S(=O)(=O)N2CCCC2)cc1` [A3.122], the IC50 turned out to be 21.6 µM.

For `N#Cc1c(NC(=O)C(C(F)(F)F)C(F)(F)F)sc2c1CCCC2` [A3.299], the IC50 was 71.4 µM.

In the case of `CC(C)CC(NC(=O)C(CCC(N)=O)NC(=O)CNC(=O)C(NC(=O)OCC1c2ccccc2-c2ccccc21)C(C)C)C(=O)O` (stereo not shown) [A3.132] (Fmoc-VGQL-OH; configuration not given here), the IC50 is 22.5 µM.

Take `C/C(=N\N=C1\SC(CC(=O)O)C(=O)N1c1ccccc1)c1ccco1` (stereo not shown) [A3.174]: the IC50 came to 28.6 µM.

With `CC(C)C1N=C(Cc2cccnc2)N(CCCN2CCCC2=O)C1C(=O)NCc1ccccc1` (stereo not shown) [A3.205], the IC50 is 34 µM.

As for `CCOc1ccc(S(=O)(=O)N2CCCCC2)cc1-c1nc2c(C(C)(C)C)nn(C)c2c(=O)[nH]1` [A3.124], the IC50 is 21.8 µM.

Still in this assay, the particulars now being: Table 4, starred values = ID50; read-out: ID50 APN (values marked with *).
On to `C/C(=N\NC(=O)c1cc(-c2ccco2)n[nH]1)c1ccco1` [A4.181], for which the IC50 is 161 µM.

Still in this assay, the particulars now being: Table 4, unstarred values; read-out: IC50APN.
Turning to `COc1ccc(OCC(=O)N/N=C/c2cc(Br)c(O)c(O)c2Br)c(Br)c1` [A4.033], the IC50 came to 15 µM.

As for `O=C(Nc1ccccc1C(=O)N/N=C/c1ccco1)c1ccc(Cl)cc1Cl` [A4.046], the IC50 came to 18.7 µM.

As for `CSc1nnc2n(/N=C/c3ccco3)cnn12` [A4.112], the IC50 was 34.7 µM.

Consider `Cc1ccc(/C=N/NC(=O)c2nnn(-c3nonc3N)c2CN2CCOCC2)o1` [A4.084], for which the IC50 was 26.7 µM.

On to `COc1cc(Br)ccc1OCC(=O)N/N=C(C)/C=C/c1ccco1` [A4.116], for which the IC50 was 36.3 µM.

Take `O=C(N/N=C/c1ccco1)c1cccc(NC(=O)c2ccccc2Cl)c1` [A4.057]: the IC50 turned out to be 20.6 µM.

For `O=C(N/N=C/c1cc(Br)cc(Br)c1OC(=O)c1ccccc1)/C(=C/c1ccc2c(c1)OCO2)NC(=O)c1ccccc1` [A4.052], the IC50 turned out to be 19.8 µM.

`COc1ccc(/C(C)=N/NC(=O)CNC(=O)/C=C\c2ccco2)cc1` [A4.093]: the IC50 is 29.4 µM.

Turning to `COc1cc(Br)ccc1OCC(=O)N/N=C/C=C/c1ccco1` [A4.017], the IC50 is 11 µM.

Take `CC(N/N=C1/SC(CC(=O)O)C(=O)N1c1ccccc1)c1ccco1` (stereo not shown) [A4.092]: the IC50 was determined as 28.6 µM.

Still in this assay, the particulars now being: Table 5, unstarred values; read-out: IC50APN.
With `Oc1ccc(Cl)cc1/N=C/c1ccc(-c2ccc(F)cc2)o1` [A5.005], the IC50 came to 77.3 µM.

For `CCCOc1[nH]c(/N=C/c2ccccc2)c(C#N)c1C#N` [A5.004], the IC50 was found to be 20 µM.

The assay is the same for the next values; noted with them: Table 6; read-out: IC50APN.
As to `O=C(Nc1ccc(N=Nc2ccccc2)cc1)c1ccc(S(=O)(=O)N2CCCC2)cc1` [A6.012], the IC50 came to 21.6 µM.

On to `O=C(CS(=O)(=O)c1ccc(Cl)cc1)NO` [A6.003], for which the IC50 was found to be 11.5 µM.

Staying with this assay, now noted: Table 7; read-out: IC50APN.
Take `O=C(O)CSCC1NC(=S)N(c2ccccc2)C1=O` (stereo not shown) [A7.005]: the IC50 came to 12 µM.

Staying with this assay, now noted: Table 8, unstarred values; read-out: IC50APN.
As for `O=C1C(Cc2c[nH]c3ccccc23)NC(=S)N1c1ccccc1` (stereo not shown) [A8.009], the IC50 came out at 12.4 µM.

`Cc1cccc(C)c1Nc1c(-c2ccccc2NC(=O)Nc2ccccc2)nc2c(C(=O)NCc3ccc(F)cc3)cccn12` [A8.015]: the IC50 worked out at 14.9 µM.

Take `CC(C)CC1CC(=S)C(C2CCCCC2)C1=O` (stereo not shown) [A8.007]: the IC50 was found to be 8 µM.

With `COC(=O)N/N=C(C)\C=C\c1ccco1` [A8.011], the IC50 amounted to 13.5 µM.

`CCOC(=O)CCCCC(=O)c1c(C)n(C(=O)c2ccc(N3C(=O)CCC3=O)cc2)c(=O)n1C(=O)c1ccc(N2C(=O)CCC2=O)cc1` [A8.017]: the IC50 was 15.6 µM.

For the compound `CC1=NC(N)=NC(C)(C)N1c1c(Cl)cccc1Cl` [A8.034], the IC50 came out at 59.8 µM.

The assay is the same for the next values; noted with them: Table 9, starred values = ID50; read-out: ID50 APN (values marked with *).
In the case of `O=C(/C=C/c1ccco1)NCCCN1CCOCC1` [A9.127], the IC50 came to 208 µM.

The same assay, now with this note: Table 9, unstarred values; read-out: IC50APN.
Regarding `NC(=O)C1CCN(C(=O)/C(=C/c2ccco2)NC(=O)c2ccccc2)CC1` [A9.081], the IC50 came to 30.5 µM.

As for `O=C(O)c1ccc(-n2c(/C=C/c3ccco3)nc3ccccc3c2=O)cc1` [A9.052], the IC50 is 21.2 µM.

In the case of `O=C(N/N=C/c1ccco1)c1ccc(=O)[nH]n1` [A9.058], the IC50 worked out at 22.4 µM.

Consider `O=C1C2=[N+]([O-])C3CCCCC3[N+]([O-])=C2c2ccccc21` (stereo not shown) [A9.030], for which the IC50 worked out at 13.7 µM.

As to `CC1=C(C#N)C(O)=NC(=O)/C1=C/c1ccc(-c2ccc(Cl)c(C(=O)OC(C)C)c2)o1` [A9.053], the IC50 stood at 21.3 µM.

For the compound `Cn1c(=O)[nH]c2nnc(-c3cccs3)nc2c1=O` [A9.065], the IC50 was determined as 22.6 µM.

Take `O=C(Cc1ccc([N+](=O)[O-])cc1)N1CCOCC1` [A9.044]: the IC50 is 19.1 µM.

On to `CC1=C(C#N)C(=O)N(CCCO)C(=O)/C1=C\c1ccc(-c2ccc(Br)cc2)o1` [A9.037], for which the IC50 was 16 µM.

The assay is the same for the next values; noted with them: Table 10; read-out: IC50APN.
With `Cc1ccc(C(=O)N/C(=C\c2ccco2)C(=O)N2CC3CC(C2)c2cccc(=O)n2C3)cc1C` (stereo not shown) [A10.006], the IC50 worked out at 11.8 µM.

Staying with this assay, now noted: Table 11; read-out: IC50APN.
Turning to `CCN(CC)C(=O)c1cc([N+](=O)[O-])ccc1C(=O)O` [A11.009], the IC50 was found to be 12.1 µM.

Turning to `O=C(CNC(=O)c1ccccc1F)N/N=C/c1ccc([N+](=O)[O-])o1` [A11.032], the IC50 is 60 µM.

The same assay, now with this note: Table 12; read-out: IC50APN.
In the case of `N#C/C(=C\c1ccc(N2Cc3ccccc3C2)cc1)C(=O)NCC1CCCO1` (stereo not shown) [A12.047], the IC50 was found to be 28.1 µM.

On to `CN(C)CCCN1CCN(c2nc(N(C)CC(=O)O)c3ncn(Cc4ccc(C(F)(F)F)cc4)c3n2)CC1` [A12.042], for which the IC50 came out at 23 µM.

In the case of `O=C(ON1C(=O)CCC1=O)C1CCC(=O)N1C(=O)OCc1ccccc1` (stereo not shown) [A12.015], the IC50 was 7.5 µM.

For the compound `COc1c(OCC(O)C(C)(C)O)ccc2c1N=C1OC=CC1C2OC` (stereo not shown) [A12.072], the IC50 was determined as 117 µM.

As for `O=C(O)SCCC1NC(=S)N(c2ccccc2)C1=O` (stereo not shown) [A12.024], the IC50 worked out at 12 µM.

The same assay, now with this note: Table 13; read-out: IC50APN.
For `CCCOC(=O)c1cc(-c2ccc(/C=C3/C(=O)N(CC(C)O)C(=O)C(C#N)=C3C)o2)ccc1Cl` (stereo not shown) [A13.017], the IC50 was 32 µM.

Turning to `CCOC(=O)c1cc(-c2ccc(/C=C3\C(=O)N(CCCO)C(=O)C(C#N)=C3C)o2)ccc1Cl` [A13.020], the IC50 was 41 µM.

As for `CCOC(=O)c1ccc(-c2ccc(/C=C3\C(=O)N(CCO)C(=O)C(C#N)=C3C)o2)cc1` [A13.002], the IC50 is 2.7 µM.

Regarding `C=CCOC(=O)c1cc(-c2ccc(/C=C3/C(=O)N(CCCO)C(=O)C(C#N)=C3C)o2)ccc1Cl` [A13.008], the IC50 was determined as 18.1 µM.
